Assay results reported in the supplement of paper PMC10307832.

Key:
Assay in all cases: relative viability (nuclei count vs DMSO), 5 days (fraction); higher = more cells survive
[1] = compound: NC1(c2ccc(-c3nc4ccn5c(=O)[nH]nc5c4cc3-c3ccccc3)cc2)CCC1 [MK-2206] + CC(=O)Nc1cccc(-n2c(=O)n(C3CC3)c(=O)c3c(Nc4ccc(I)cc4F)n(C)c(=O)c(C)c32)c1 [Trametinib] (partner 0.02 µM)
Procedure, shortened: (§1)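 Each reported value is a median over duplicate plates. It expresses relative viability: treated-well nuclei count divided by vehicle-well nuclei count. Lung cancer cell lines in 1536-well plates were dosed by pin tool a day after seeding, alone with one drug or with a fixed anchor-drug dose plus five library-drug doses (not always all listed) in √10 steps, and nuclei were counted after 5 days.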

[2] = compound: CS(=O)(=O)N1CCN(Cc2cc3nc(-c4cccc5[nH]ncc45)nc(N4CCOCC4)c3s2)CC1 [Pictilisib] + Nc1ncn([C@H]2C[C@H](O)[C@@H](CO)O2)c(=O)n1 [Decitabine] (partner 2 µM)
Procedure, shortened: as §1

[3] = compound: CS(=O)(=O)N1CCN(Cc2cc3nc(-c4cccc5[nH]ncc45)nc(N4CCOCC4)c3s2)CC1 [Pictilisib] + CC1(C)CCC(c2ccc(Cl)cc2)=C(CN2CCN(c3ccc(C(=O)NS(=O)(=O)c4ccc(N[C@H](CCN5CCOCC5)CSc5ccccc5)c(S(=O)(=O)C(F)(F)F)c4)cc3)CC2)C1 [Navitoclax] (partner 0.5 µM)
Procedure, shortened: as §1

[4] = compound: NC1(c2ccc(-c3nc4ccn5c(=O)[nH]nc5c4cc3-c3ccccc3)cc2)CCC1 [MK-2206] + COc1cc2c(Oc3ccc(NC(=O)C4(C(=O)Nc5ccc(F)cc5)CC4)cc3F)ccnc2cc1OCCCN1CCOCC1 [Foretinib] (partner 0.25 µM)
Procedure, shortened: as §1

[5] = compound: NC1(c2ccc(-c3nc4ccn5c(=O)[nH]nc5c4cc3-c3ccccc3)cc2)CCC1 [MK-2206] + Nc1nc2[nH]cc(CCc3ccc(C(=O)N[C@@H](CCC(=O)O)C(=O)O)cc3)c2c(=O)[nH]1 [Pemetrexed] (partner 0.2 µM)
Procedure, shortened: as §1

UMC-11 showed a relative viability ([1]; first compound 0.01 µM) of 0.594, a relative viability ([1]; first compound 0.03162 µM) of 0.717 and a relative viability ([1]; first compound 0.3162 µM) of 0.772. It also gave a relative viability ([1]; first compound 1 µM) of 0.966, a relative viability ([2]; first compound 0.02 µM) of 0.644 and a relative viability ([2]; first compound 0.06325 µM) of 0.724. The relative viability ([2]; first compound 0.6325 µM) was 0.566, the relative viability ([2]; first compound 2 µM) was 0.519 and the relative viability ([3]; first compound 0.02 µM) was 0.343. For the same cell line, the relative viability ([3]; first compound 0.06325 µM) was 0.281, the relative viability ([3]; first compound 0.6325 µM) was 0.349 and the relative viability ([3]; first compound 2 µM) was 0.281. The relative viability ([4]; first compound 0.01 µM) was 1.08, the relative viability ([4]; first compound 0.03162 µM) was 1.1 and the relative viability ([4]; first compound 0.3162 µM) was 1.16. The relative viability ([4]; first compound 1 µM) was 1.05, the relative viability ([5]; first compound 0.01 µM) was 0.862 and the relative viability ([5]; first compound 0.03162 µM) was 0.763. It also gave a relative viability ([5]; first compound 0.3162 µM) of 0.836 and a relative viability ([5]; first compound 1 µM) of 0.791.
